The target of one assay is human DGKζ (Homo sapiens (Human), UniProt Q13574). Kind of assay: biochemical. In kind it is biochemical.
The target of a further assay is DGKα (Homo sapiens (Human), UniProt P23743). In words: biochemical. In kind it is biochemical.
Assay [1] concerns Human venous whole blood (IFN-γ). In words: Human whole blood IFN-γ assay. In kind it is cell-based. The procedure: Assay 10: Human Whole Blood IFN-γ Assay
Human venous whole blood (22.5 μL per well), obtained from healthy donors, was pre-treated with compounds for one hour at 37° C. in a humidified 95% air/5% CO2 incubator. The blood was stimulated with 2.5 μL anti-human CD3 and anti-CD28 mAb at a final concentration of 1 μg/mL each for 24 hours at 37° C. IFN-γ in the supernatants was measured using AlphLISA kit (Cat #AL217).

[2] abbreviates: liposome (LIPGLO) assay, read-out: DGKζ LIPGLO IC50.
The mark [3] stands for this setting: liposome (LIPGLO) assay, read-out: DGKα LIPGLO IC50.
Where [4] appears, read: Homo sapiens, 24 h, human whole blood, anti-CD3 plus anti-CD28, 24 hours, read-out: INFg Whole Blood Normalized Agonist EC50.
[5] abbreviates: Table A, liposome (LIPGLO) assay, read-out: DGKζ.
Where [6] appears, read: Table A, liposome (LIPGLO) assay, read-out: DGKα.
[7] abbreviates: human whole blood IFN-γ, read-out: INFg Whole Blood.
Setting [8] is: human whole blood, anti-CD3 plus anti-CD28, 24 hours, read-out: INFg Whole Blood Normalized Agonist EC50.

Like-named read-outs stand apart in the source and are kept apart here. Bounds are passed on as bounds.

Sequence of human DGKζ (Q13574 whole entry, looked up): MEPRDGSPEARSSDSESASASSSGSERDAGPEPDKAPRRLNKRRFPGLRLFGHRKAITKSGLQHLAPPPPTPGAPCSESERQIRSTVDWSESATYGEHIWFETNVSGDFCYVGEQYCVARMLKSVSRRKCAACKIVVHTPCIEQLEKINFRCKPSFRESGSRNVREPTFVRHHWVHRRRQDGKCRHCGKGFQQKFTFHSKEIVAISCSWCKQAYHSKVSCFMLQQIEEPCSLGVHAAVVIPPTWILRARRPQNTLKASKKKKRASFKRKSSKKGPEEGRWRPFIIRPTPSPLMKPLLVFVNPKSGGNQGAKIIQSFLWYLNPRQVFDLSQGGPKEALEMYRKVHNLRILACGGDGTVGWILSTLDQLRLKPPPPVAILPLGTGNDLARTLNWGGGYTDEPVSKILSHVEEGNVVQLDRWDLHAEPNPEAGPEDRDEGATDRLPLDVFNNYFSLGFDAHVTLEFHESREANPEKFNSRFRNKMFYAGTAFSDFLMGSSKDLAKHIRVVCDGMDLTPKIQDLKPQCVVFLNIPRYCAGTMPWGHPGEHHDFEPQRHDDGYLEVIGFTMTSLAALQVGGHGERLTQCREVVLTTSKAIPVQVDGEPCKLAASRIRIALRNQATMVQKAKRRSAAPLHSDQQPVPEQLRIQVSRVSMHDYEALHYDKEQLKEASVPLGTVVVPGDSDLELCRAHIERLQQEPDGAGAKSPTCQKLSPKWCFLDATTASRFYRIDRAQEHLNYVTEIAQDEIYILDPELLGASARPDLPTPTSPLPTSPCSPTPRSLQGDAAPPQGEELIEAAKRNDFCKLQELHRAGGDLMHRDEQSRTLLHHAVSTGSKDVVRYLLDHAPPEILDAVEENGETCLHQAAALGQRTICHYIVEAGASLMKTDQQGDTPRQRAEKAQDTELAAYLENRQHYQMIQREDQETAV
Sequence of DGKα (P23743 whole entry, looked up): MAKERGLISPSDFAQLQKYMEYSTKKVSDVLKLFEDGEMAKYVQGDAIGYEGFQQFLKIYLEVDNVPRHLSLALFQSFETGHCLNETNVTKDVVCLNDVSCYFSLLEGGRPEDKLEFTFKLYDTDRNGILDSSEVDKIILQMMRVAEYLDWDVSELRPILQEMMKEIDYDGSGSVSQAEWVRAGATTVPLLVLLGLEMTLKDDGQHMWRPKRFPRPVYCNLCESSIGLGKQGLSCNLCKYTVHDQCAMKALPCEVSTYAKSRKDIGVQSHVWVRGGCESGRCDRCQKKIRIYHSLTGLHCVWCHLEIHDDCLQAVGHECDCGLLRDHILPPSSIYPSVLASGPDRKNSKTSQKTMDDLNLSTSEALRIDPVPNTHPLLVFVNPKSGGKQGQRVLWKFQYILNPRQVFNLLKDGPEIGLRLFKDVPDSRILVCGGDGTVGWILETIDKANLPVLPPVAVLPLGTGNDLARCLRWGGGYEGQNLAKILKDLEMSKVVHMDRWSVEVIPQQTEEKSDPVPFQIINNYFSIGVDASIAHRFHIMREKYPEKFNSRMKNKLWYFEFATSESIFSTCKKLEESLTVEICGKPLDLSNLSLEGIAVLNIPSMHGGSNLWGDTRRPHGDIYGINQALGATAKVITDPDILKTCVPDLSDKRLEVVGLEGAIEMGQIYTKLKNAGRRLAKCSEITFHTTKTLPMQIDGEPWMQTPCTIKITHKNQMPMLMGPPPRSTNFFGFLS

Take `C[C@@H]1CN(c2cc(=O)n(C)c3ccc(C#N)nc23)CC[C@H]1Oc1ccc(F)cc1C(F)(F)F` (single isomer, unassigned) [Example 117]: the IC50 is 20000 nM at human DGKζ (setting [2]) and 2000 nM on DGKα (setting [3]). Further, in assay [1] (setting [4]), the EC50 amounted to 4600 nM.
The like results for `CCCCCc1ccc(OC2CCN(c3cc(=O)n(C)c4ccc(C#N)nc34)CC2)cc1` [Example 62, 5-methyl-6-oxo-8-(4-(4-pentylphenoxy)piperidin-1-yl)-5,6-dihydro-1,5-naphthyridine-2-carbonitrile] were, in that order, 5200 nM, 1500 nM and 20000 nM.
For the molecule `Cc1cccc(O[C@@H]2CCN(c3c(C#N)c(=O)n(C)c4ccc(C#N)nc34)C[C@H]2C)c1` [Example 136, 5-methyl-8-((3R,4R)-3-methyl-4-(m-tolyloxy)piperidin-1-yl)-6-oxo-5,6-dihydro-1,5-naphthyridine-2,7-dicarbonitrile], the IC50 on human DGKζ (setting [2]) is at least 250000 nM; against DGKα (DGKα LIPGLO IC50), 810 nM. Moreover, the EC50 in assay [1] (setting [4]) amounted to 20000 nM.
As to `C[C@@H]1CN(c2c(C#N)c(=O)n(C)c3ccc(C#N)nc23)CC[C@@H]1Oc1ccc(C(F)(F)F)cc1` [Example 191, 5-methyl-8-((3R,4S)-3-methyl-4-(4-(trifluoromethyl)phenoxy)piperidin-1-yl)-6-oxo-5,6-dihydro-1,5-naphthyridine-2,7-dicarbonitrile], the IC50 was 8600 nM at human DGKζ (setting [5]) and 1800 nM at DGKα (setting [6]). For the same molecule, in assay [1] (setting [7]), the EC50 came out at 20000 nM.
`CC(C)c1ccc(O[C@H]2CCN(c3cc(=O)n(C)c4ccc(C#N)nc34)C[C@H]2C)cc1` [Example 176, 8-((3R,4S)-4-(4-isopropylphenoxy)-3-methylpiperidin-1-yl)-5-methyl-6-oxo-5,6-dihydro-1,5-naphthyridine-2-carbonitrile]: the values for the IC50 at human DGKζ (setting [2]) and on DGKα (setting [3]) were 1300 nM and 41 nM, respectively. In addition, the EC50 in assay [1] (setting [4]) was 2300 nM.
As for `CC(C)c1ccc(O[C@H]2CCN(c3cc(=O)n(C)c4ccc(C#N)nc34)C[C@H]2C)cc1` (single isomer, unassigned) [Example 177], the figures for the IC50 at human DGKζ (setting [2]) and on DGKα (setting [3]) were 1100 nM and 140 nM, respectively. Besides, the EC50 in assay [1] (setting [4]) was determined as 3500 nM.
For the molecule `C[C@@H]1CN(c2c(C#N)c(=O)n(C)c3ccc(C#N)nc23)CC[C@@H]1Oc1ccc(C(F)(F)F)cc1` [Example 190, 5-methyl-8-((3R,4S)-3-methyl-4-(4-(trifluoromethyl)phenoxy)piperidin-1-yl)-6-oxo-5,6-dihydro-1,5-naphthyridine-2,7-dicarbonitrile], the IC50 on human DGKζ (setting [5]) is 3100 nM; on DGKα (setting [6]) it was 2200 nM. Moreover, in assay [1] (setting [7]), the EC50 is 20000 nM.
As to `Cn1c(=O)cc(N2CCC(Oc3ccc(Cc4ccccc4)cc3)CC2)c2nc(C#N)ccc21` [Example 55, 8-(4-(4-benzylphenoxy)piperidin-1-yl)-5-methyl-6-oxo-5,6-dihydro-1,5-naphthyridine-2-carbonitrile], the IC50 on human DGKζ (setting [2]) amounted to 3800 nM; on DGKα (setting [3]) it was 950 nM. For the same molecule, the EC50 in assay [1] (setting [4]) turned out to be 3700 nM.
`C[C@@H]1CN(c2cc(=O)n(C)c3ccc(C#N)nc23)CC[C@H]1Oc1cccc(C2CC2)c1` (single isomer, unassigned) [Example 93]: the IC50 on human DGKζ (setting [2]) was 18000 nM; on DGKα (setting [3]), 300 nM. For the same molecule, the EC50 in assay [1] (setting [8]) was 5900 nM.
On to `CC(C)c1ccc(O[C@H]2CCN(c3cc(=O)n(C)c4ccc(C#N)nc34)C[C@H]2C)cc1` (single isomer, unassigned) [Example 183], for which the IC50 worked out at 940 nM at human DGKζ (setting [5]) and 710 nM on DGKα (setting [6]). In assay [1] (Homo sapiens, human whole blood IFN-γ, read-out: INFg Whole Blood), the EC50 was determined as 2600 nM.
On to `Cc1cc(OC2CCN(c3cc(=O)n(C)c4ccc(C#N)nc34)CC2)nc(C)n1` [Example 70, 8-(4-((2,6-dimethylpyrimidin-4-yl)oxy)piperidin-1-yl)-5-methyl-6-oxo-5,6-dihydro-1,5-naphthyridine-2-carbonitrile], for which the IC50 on human DGKζ (setting [2]) was determined as 11000 nM; at DGKα (setting [3]) it was 12000 nM. In addition, the EC50 in assay [1] (setting [4]) was 20000 nM.
As for `CC[C@@H]1CN(c2cc(=O)n(C)c3ccc(C#N)nc23)CC[C@H]1Oc1ccc(OC(C)(C)C)cc1` [Example 158, 8-((3R,4R)-4-(4-(tert-butoxy)phenoxy)-3-ethylpiperidin-1-yl)-5-methyl-6-oxo-5,6-dihydro-1,5-naphthyridine-2-carbonitrile], the IC50 is 1900 nM on human DGKζ (read-out: DGKζ LIPGLO IC50) and 360 nM on DGKα (read-out: DGKα LIPGLO IC50). Also, the EC50 in assay [1] (setting [4]) stood at 2000 nM.
On to `CCC(C)(C)c1ccc(OC2CCN(c3cc(=O)n(C)c4ccc(C#N)nc34)CC2)cc1` [Example 54, 5-methyl-6-oxo-8-(4-(4-(tert-pentyl)phenoxy)piperidin-1-yl)-5,6-dihydro-1,5-naphthyridine-2-carbonitrile], for which the IC50 on human DGKζ (setting [2]) stood at 2100 nM; on DGKα (setting [3]) it was 540 nM. For the same molecule, the EC50 in assay [1] (setting [4]) was 2300 nM.
For `CC(C)c1ccc(O[C@@H]2CCN(c3cc(=O)n(C)c4ccc(C#N)nc34)C[C@H]2C)cc1` (single isomer, unassigned) [Example 96], the IC50 came out at 20000 nM at human DGKζ (setting [2]) and 57 nM on DGKα (setting [3]). The EC50 in assay [1] (setting [8]) stood at 2600 nM.
Take `Cc1ccc(O[C@@H]2CCN(c3cc(=O)n(C)c4ccc(C#N)nc34)C[C@H]2C)cc1` (single isomer, unassigned) [Example 121]: the values for the IC50 at human DGKζ (setting [2]) and at DGKα (setting [3]) were 9900 nM and 1800 nM, respectively. In addition, the EC50 in assay [1] (setting [8]) is 6700 nM.
As to `COc1cc(OC2CCN(c3cc(=O)n(C)c4ccc(C#N)nc34)CC2)nc2cc(Cl)ccc12` [Example 73, 8-(4-((7-chloro-4-methoxyquinolin-2-yl)oxy)piperidin-1-yl)-5-methyl-6-oxo-5,6-dihydro-1,5-naphthyridine-2-carbonitrile], the IC50 on human DGKζ (setting [2]) amounted to 8300 nM; on DGKα (setting [3]) it was 2200 nM. Further, the EC50 in assay [1] (setting [4]) amounted to 20000 nM.
`CCC(C)(C)c1ccc(O[C@@H]2CCN(c3c(C#N)c(=O)n(C)c4ccc(C#N)nc34)C[C@H]2C)cc1` (racemic) [Example 229, (+/−) 5-methyl-8-(trans-3-methyl-4-(4-(tert-pentyl)phenoxy)piperidin-1-yl)-6-oxo-5,6-dihydro-1,5-naphthyridine-2,7-dicarbonitrile]: the results for the IC50 on human DGKζ (setting [5]) and at DGKα (setting [6]) were at least 250000 nM and 280 nM, respectively.
For `CCc1cnc(O[C@H]2CCN(c3cc(=O)n(C)c4ccc(C#N)nc34)C[C@H]2C)nc1` [Example 221, 8-((3R,4S)-4-((5-ethylpyrimidin-2-yl)oxy)-3-methylpiperidin-1-yl)-5-methyl-6-oxo-5,6-dihydro-1,5-naphthyridine-2-carbonitrile], the results for the IC50 at human DGKζ (setting [5]) and at DGKα (setting [6]) were 1800 nM and 350 nM, respectively.
Turning to `CC[C@@H]1CN(c2cc(=O)n(C)c3ccc(C#N)nc23)CC[C@H]1Oc1cccc(OC(F)(F)F)c1` (single isomer, unassigned) [Example 163], the IC50 on human DGKζ (setting [2]) worked out at 360 nM; on DGKα (setting [3]), 42 nM.
Turning to `CCC(C)(C)c1ccc(O[C@@H]2CCN(c3c(C#N)c(=O)n(C)c4ccc(C#N)nc34)C[C@H]2C)cc1` (single isomer, unassigned) [Example 230, 5-methyl-8-(trans-3-methyl-4-(4-(tert-pentyl)phenoxy)piperidin-1-yl)-6-oxo-5,6-dihydro-1,5-naphthyridine-2,7-dicarbonitrile (rel)], the IC50 at human DGKζ (setting [5]) is at least 250000 nM; at DGKα (setting [6]), 3300 nM.

These data come from patent US11964973B2 (priority 2019, dated 2024).
